Data from paper PMC3602246 (BMC Pharmacology & Toxicology, 2013).
Entries after “also recorded” stand apart in the source; their conditions may differ. Read-outs that look alike come from different tables or passages of the source.

Columns and labels:
[1] = molecular target: T1, human kappa opioid receptor (Homo sapiens, UniProt P41145); format: cell-based
T1 construct: FLAG; expressed in transfected cells

[2] = molecular target: T1, human kappa opioid receptor; format: cell-based; remark: listed apart in the source
DOR = settings: cited from earlier work; for Ki: read-out: Ki, affinity binding to the DOR
KOR = settings: cited from earlier work; for Ki: read-out: Ki, affinity binding to the KOR
MOR = settings: cited from earlier work; for Ki: read-out: Ki, affinity binding to the MOR
[3] = molecular target: T2, human mu opioid receptor (MOR1) (Homo sapiens, UniProt P35372); format: cell-based
T2 construct: FLAG; expressed in transfected cells
T2 sequence (P35372 whole entry): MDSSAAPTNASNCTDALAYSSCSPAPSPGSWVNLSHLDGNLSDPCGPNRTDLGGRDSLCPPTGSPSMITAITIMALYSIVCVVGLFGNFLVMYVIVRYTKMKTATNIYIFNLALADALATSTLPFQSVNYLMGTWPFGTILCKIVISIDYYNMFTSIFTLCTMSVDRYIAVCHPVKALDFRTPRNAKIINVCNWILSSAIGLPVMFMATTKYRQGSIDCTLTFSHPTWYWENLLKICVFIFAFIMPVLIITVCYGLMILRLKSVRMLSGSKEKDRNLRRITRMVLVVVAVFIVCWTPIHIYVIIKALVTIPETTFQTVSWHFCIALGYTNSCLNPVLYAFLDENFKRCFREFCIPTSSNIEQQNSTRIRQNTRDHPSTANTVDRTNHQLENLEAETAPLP

[4] = molecular target: T2, human mu opioid receptor (MOR1); format: cell-based; settings: HEK-MOR; ligand 10 μM, 1 hr; DAMGO 10 μM
[5] = molecular target: T1, human kappa opioid receptor; format: cell-based; settings: read-out: IC50, single phase inhibition of BRL-52537 DMR
[6] = read-out: EC50, first phase of biphasic DMR dose response
[7] = read-out: EC50, second phase of biphasic DMR dose response

T1 sequence (P41145 whole entry): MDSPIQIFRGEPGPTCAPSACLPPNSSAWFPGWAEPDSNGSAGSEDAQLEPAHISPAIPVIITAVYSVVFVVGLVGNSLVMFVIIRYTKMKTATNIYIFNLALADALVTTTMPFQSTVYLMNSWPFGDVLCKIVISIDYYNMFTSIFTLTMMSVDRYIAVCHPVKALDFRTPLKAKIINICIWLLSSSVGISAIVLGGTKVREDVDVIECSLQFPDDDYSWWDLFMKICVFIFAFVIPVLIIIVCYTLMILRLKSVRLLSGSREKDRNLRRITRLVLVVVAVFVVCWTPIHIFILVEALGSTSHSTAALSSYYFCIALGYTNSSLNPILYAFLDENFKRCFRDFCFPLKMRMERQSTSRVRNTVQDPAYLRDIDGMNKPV

Row | Molecule | Ki (DOR) [nM] | Ki (KOR) [nM] | Ki (MOR) [nM] | other results
1 | α-Neoendorphin (YGGFLRKYPK; Alpha-neoendorphin; UniProt P01213 175-184, looked up) | 1.17 | 1.4 |  | DMR agonist activity classification, KOR [1]: Full agonist; ligand DMR in PTX-pretreated cells [2]: detectable P-DMR
2 | CC1(C)SSC(C)(C)[C@@H](NC(=O)[C@@H](N)Cc2ccc(O)cc2)C(=O)NCC(=O)N[C@@H](Cc2ccccc2)C(=O)N[C@H]1C(=O)O [DPDPE] |  | 12000 | 600 | 
3 | DTLET | 22 | > 10000 |  | DMR agonist activity classification, MOR [3]: Full agonist
4 | COC(=O)N1CCN(C(=O)Cc2ccc(Cl)c(Cl)c2)C(CN2CCCC2)C1 (stereo not drawn) [GR 89696] |  | 41.7 |  | DMR agonist activity classification, KOR [1]: Full agonist; ligand DMR in PTX-pretreated cells [2]: detectable P-DMR
5 | C=CC[N+]1(C)CC[C@]23c4c5ccc(O)c4O[C@H]2C(=O)CC[C@@]3(O)[C@H]1C5 (stereo partly drawn) [Naloxone methiodide] | 204 | 1010 | 28.9 | blockage of the DAMGO response [4]: partial blockage
6 | O=C1/C(=C/c2ccccc2)C[C@@]2(O)[C@H]3Cc4ccc(O)c5c4[C@@]2(CCN3CC2CC2)[C@H]1O5 [BNTX] | 0.66 | 55 | 18 | DMR agonist activity classification, MOR [3]: off-target; DMR agonist activity classification, KOR [1]: off-target
7 | Dynorphin A (2–13) |  | 680 |  | 
8 | COC(=O)/C=C/C(=O)N[C@@H]1CC[C@@]2(O)[C@H]3Cc4ccc(O)c5c4[C@@]2(CCN3CC2CC2)[C@H]1O5 [β-Funaltrexamine] | 48 | 2.8 | 0.33 | 
9 | (Met5)-Enkephalin | 2 | 2.9 | 3 | 
10 | Dynorphin A (1–13) | > 1000 | 0.98 | 31 | 
11 | Oc1ccc2c3c1O[C@H]1c4[nH]c5ccccc5c4C[C@@]4(O)[C@@H](C2)N(CC2CC2)CC[C@]314 [Naltrindole] |  |  |  | blockage of the DAMGO response [4]: partial blockage
12 | Nociceptin | > 1000 | > 1000 | 270 | 
13 | Oc1ccc2c3c1O[C@H]1c4oc5ccccc5c4C[C@@]4(O)[C@@H](C2)N(CC2CC2)CC[C@]314 [Naltriben] | 0.4 | > 10000 | 80.8 | blockage of the DAMGO response [4]: partial blockage
14 | NC(=O)[C@H](Cc1ccccc1)NC(=O)[C@H](Cc1ccccc1)NC(=O)[C@@H]1CCCN1C(=O)[C@@H](N)Cc1ccc(O)cc1 [Endomorphin-2] | > 500 |  | 0.43 | 
15 | Dynorphin B | 12.8 |  |  | 
16 | DADLE | 0.63 | 1900 | 150 | 
17 | C=CCN1CCC2(C)c3cc(O)ccc3CC1C2C (stereo not drawn) [SKF10047] | 19000 | 1600 | 1900 | 
18 | Dynorphin A (1–8) (YGGFLRRI; Dynorphin A(1-8); UniProt P01213 207-214, looked up, fragment) | 32.6 |  | 22.3 | DMR agonist activity classification, MOR [3]: Full agonist
19 | COc1ccc2c3c1O[C@H]1[C@@H](O)C=C[C@H]4[C@@H](C2)NCC[C@@]341 [(−)-Norcodeine] |  |  | 267 | 
20 | Oc1ccc2c3c1O[C@H]1c4[nH]c5c(c4C[C@@]4(O)[C@@H](C2)N(CC2CC2)CC[C@]314)C[C@@]1(O)[C@H]2Cc3ccc(O)c4c3[C@@]1(CCN2CC1CC1)[C@H]5O4 [Nor-Binaltorphimine] |  |  |  | blockage of the DAMGO response [4]: partial blockage; DMR under all eight assay conditions [2]: absence of any DMR; also recorded: did not trigger any DMR response under any conditions
21 | Deltorphin II | 3.3 | > 1000 | > 1000 | 
22 | CN(C(=O)Cc1ccc(Cl)c(Cl)c1)C(CN1CCCC1)c1cccc(OCC(=O)O)c1 (stereo not drawn) [ICI 204,448] | > 1000 | 2.69 | > 1000 | 
23 | Oc1ccc2c3c1O[C@H]1c4c(c5ccccc5n4Cc4ccccc4)C[C@@]4(O)[C@@H](C2)N(CC2CC2)CC[C@]314 [N-Benzylnaltrindole] |  |  |  | blockage of the DAMGO response [4]: partial blockage; IC50 ratio at the MOR (MOR): 11.2; IC50 ratio at the DOR (DOR): 459; IC50 ratio at the KOR (KOR): 1.3
24 | O=C(Cc1ccc(Cl)c(Cl)c1)N1CCCCC1CN1CCCC1 (stereo not drawn) [BRL-52537] |  | 0.24 | 1560 | DMR agonist activity classification, KOR [1]: Full agonist; DMR response at 9 min poststimulation [1]: 213±21 pm; saturable DMR amplitude, first phase of biphasic dose response [1]: 120±6 pm; saturable DMR amplitude, second phase of biphasic dose response [1]: 207±13 pm; EC50 [1, 6]: 0.0356 ± 0.0031 nM; EC50 [1, 7]: 26 ± 1.9 nM; IC50 [5]: 4.1 ± 0.23 nM; ligand DMR in PTX-pretreated cells [2]: detectable P-DMR
25 | C[C@@H](NC(=O)[C@@H](N)Cc1ccc(O)cc1)C(=O)NCC(=O)N(C)[C@@H](Cc1ccccc1)C(=O)NCCO [DAMGO] |  | > 20000 |  | DMR agonist activity classification, MOR [3]: Full agonist; DMR response at 9 min poststimulation [3]: 240±17 pm; saturable DMR amplitude, first phase of biphasic dose response [1]: 139±6 pm; saturable DMR amplitude, second phase of biphasic dose response [1]: 200±8 pm
26 | CN(C(=O)Cc1ccc(Cl)c(Cl)c1)[C@H](CN1CCCC1)c1cccc(N=C=S)c1 [DIPPA] |  |  |  | DMR agonist activity classification, KOR [1]: Full agonist; saturable DMR amplitude, first phase of biphasic dose response [1]: 138±8 pm; saturable DMR amplitude, second phase of biphasic dose response [1]: 205±9 pm; EC50 [1, 6]: 13.4 ± 1.5 nM; EC50 [1, 7]: 240 ± 11.2 nM; IC50 [5]: 455 ± 32.3 nM; ligand DMR in PTX-pretreated cells [2]: detectable P-DMR; IC50 (MOR; read-out: IC50, affinity binding to the MOR): 1800 nM; IC50 (DOR; read-out: IC50, affinity binding to the DOR): > 1000 nM; IC50 (KOR; read-out: IC50, affinity binding to the KOR): 2.21 nM
27 | NC(=O)[C@H](Cc1ccccc1)NC(=O)[C@H](Cc1c[nH]c2ccccc12)NC(=O)[C@@H]1CCCN1C(=O)[C@@H](N)Cc1ccc(O)cc1 [Endomorphin-1] | > 500 |  |  | 
28 | C=CCN1CC[C@]23CCCC[C@H]2[C@H]1Cc1ccc(O)cc13 [Levallorphan] | 1 | 0.3 | 1.7 | 
29 | COC(=O)[C@@H]1C[C@H](OC(C)=O)C(=O)[C@H]2[C@@]1(C)CC[C@H]1C(=O)O[C@H](c3ccoc3)C[C@]21C [Salvinorin A] |  |  |  | DMR agonist activity classification, KOR [1]: Full agonist; ligand DMR in PTX-pretreated cells [2]: detectable P-DMR; EC50 (MOR; read-out: EC50 at the MOR): […]; EC50 (KOR; read-out: EC50 at the KOR): […]
30 | DSLET |  |  | 120 | DMR agonist activity classification, MOR [3]: Full agonist
